In PubChem BioAssay AID2305 (GlaxoSmithKline (GSK), 2010) one finds IC50 data, which are given here for 62 molecules.

The test system of the assay is P. falciparum 3D7 growth, pLDH absorbance. In words: P. falciparum 3D7 growth inhibition, dose response, strain 3D7 (AID 2305).

A word on the IC50: it is the concentration at which inhibition is half-maximal.

The structures appear in SMILES notation.

Molecule `Nc1nccc2ccc(-c3cccnc3)cc12` displayed an IC50 of 420 nM. In turn, `CCCCN(CCCC)CCCCNc1c2ccccc2nc2ccccc12` yielded an IC50 of 150 nM. Next, `Nc1nccc2ccc(-c3cccc(O)c3)cc12`: 640 nM; `Cc1ccc(NS(=O)(=O)c2ccc(-c3ccccc3)cc2)c(Cn2cnc(N3CCCNCC3)cc2=O)c1`: 860 nM; `COc1ccc2nccc(N3CCC(NCCNCc4ccc5c(n4)NC(=O)CO5)C3)c2n1` (configuration not stated): 860 nM. Next, `O=C(CCNc1ccnc(NCC2CCCCC2)n1)Nc1ccccc1`: 1100 nM; `O=C(Nc1ccc2c(c1)CN(Cc1ccc(N3CCCC3)o1)CCC2)c1cncs1`: 1570 nM. As for `CC(C)CNC(=O)c1cncc(-c2ccc(CNCCCc3ccccc3)cc2)c1`, the IC50 was 770 nM. Against the preceding molecule, the IC50 is about 2-fold lower. Next, `N#CC1(CCCNCCc2ccc(O)cc2)CCCc2c(O)cccc21` (configuration not stated): 760 nM; `CC(C)C[C@H](NC(=O)c1cc2ccccc2s1)C(=O)N[C@H]1CCN(Cc2ccc(OCCN3CCNCC3)c3ccccc23)C1`: 1420 nM. Take `COc1ccc2ncc(F)c([C@@H](O)CN3CCC(NCc4cc(C#N)c5c(c4)CCO5)CC3)c2n1`: the IC50 was 890 nM. The result for `O=C(Nc1cccc(-c2cccc(CN3CCCC3)c2)c1)c1ccc(Cl)cc1` reads 680 nM. In the case of `O=C(c1ccc2ccccc2n1)N1CCCc2cc(Br)ccc21`, the 50% inhibitory concentration (IC50) came out at 860 nM. In turn, `CC(C)(C)OC(=O)NCc1ccc(Nc2nnc(-c3ccc(OCC(=O)NCc4cc(C(F)(F)F)cc(C(F)(F)F)c4)c([N+](=O)[O-])c3)o2)cc1` showed an IC50 of 460 nM. This IC50 is about 1.9-fold lower than that of the molecule before. The molecule `O=C(NCCCN1CCOCC1)c1cccc(Nc2nccc(Nc3ccc(Oc4ccccc4)cc3)n2)c1` had an IC50 of 770 nM. Next, `c1cc(CNc2ncc(-c3ccsc3)c(-c3nccs3)n2)ccn1`: 360 nM; `COc1ccc2nccc([C@@H](O)CN3CCC(NC(=O)c4ccc(Cl)c([N+](=O)[O-])c4)CC3)c2c1`: 950 nM; `O=C(NC1CCCc2ccccc21)C1CCCN(C(=O)c2ccc(O)c(-c3ccc(Cl)c(Cl)c3)c2)C1` (configuration not stated): 1140 nM. Next, `CCCC1N=C(N)N=C(N)N1c1ccc(C)cc1` (configuration not stated): 100 nM; `CCN(CC)CCCC(C)Nc1c2ccc(Cl)cc2nc2ccc(OC)cc12` (configuration not stated): 40 nM; `CN1CCCC(CN2CCN(Cc3cccc(-c4ccc(-c5nc6ccc(F)cc6[nH]5)cc4)c3)CC2)C1` (configuration not stated): 140 nM.

As for `NC(N)=Nc1ccc(OCCCCCOc2ccc(N=C(N)N)c(Cl)c2)cc1Cl`, the concentration for half-maximal inhibition (IC50) was 860 nM.

`COc1ccc(NC(=O)NCC2CCCN(CCCCCNC(=O)/C=C/c3ccc(Cl)c(Cl)c3)C2)c(OC)c1` (configuration not stated) showed an IC50 of 860 nM. In other words, the sub-micromolar range. On to `CC(C)C1C(O)=C(c2ccc3ccccc3c2)C(=O)N1Cc1cccc(F)c1` (configuration not stated), for which the 50% inhibitory concentration (IC50) came out at 810 nM.

Regarding `COc1ccc(CN2CCCN(Cc3cccc(C(=O)Nc4ccc(C(C)(C)C)cc4)c3)CC2)cc1`, the IC50 came to 890 nM. The molecule `Fc1ccc(CNc2ccc3ncc(-c4cccnc4)n3n2)cc1` had an IC50 of 930 nM. This IC50 and that of the molecule before are within 1.5-fold of each other. Next, `COc1ccc(CN(C)CCOc2ccc(NC(=O)c3cccc4c(=O)cc(-c5ccccc5)[nH]c34)cc2)cc1OC`: 920 nM; `CC1=C(C(=O)OC(C)C)C(c2ccccc2Cl)C2=C(CC(c3ccccc3)CC2=O)N1` (configuration not stated): 850 nM. Regarding `Cc1cc(NC(=O)NCCN2CCC(NC(=O)c3ccc(F)cc3)CC2)c2ccccc2n1`, the half-inhibitory concentration (IC50) amounted to 330 nM. Regarding `COc1ccc(Cl)cc1-c1nc(C(=O)NCCN2CCCCC2)c(C)s1`, the IC50 was determined as 940 nM. For the molecule `O=C(NCCc1ccccc1)N(Cc1cccc(-c2ccc(CNCc3ccc4c(c3)OCO4)cc2)c1)C1CCN(Cc2ccccc2)CC1`, the concentration for half-maximal inhibition (IC50) turned out to be 660 nM. Next, `CCCCCN1CCCCC(NS(=O)(=O)c2ccc(C(=O)Nc3cccc(C(F)(F)F)c3)cc2)C1` (configuration not stated): 750 nM. In turn, `Cc1ccccc1C1CCN(C2CCC(NC(=O)/C=C/c3ccc4c(c3)OC(F)(F)O4)CC2)CC1` (configuration not stated) displayed an IC50 of 670 nM. Next, `COc1ccc(Nc2ncc3c(-c4cccc(NC(=O)c5ccc(N)cc5)c4)c[nH]c3n2)cc1OC`: 970 nM; `CC(C)COc1ccc(Cl)cc1Cc1ccc(-c2nc3ccc(Br)cc3[nH]2)o1`: 1400 nM; `O=C(NCCc1ccc(Cl)c(Cl)c1)[C@@H]1CCCN1C(=O)c1ccc(O)c(-c2cccc(C(F)(F)F)c2)c1`: 820 nM. Molecule `CNCCNCc1cccc(-c2cccc(-c3nc4ccc(C(F)(F)F)cc4[nH]3)c2)c1` had an IC50 of 200 nM. `Cc1[nH]c(C)c(-c2ccc(OCc3ccc(OC(F)(F)F)cc3)nc2)c(=O)c1Br` had an IC50 of 140 nM. The result for `COc1cc(NC2=C(c3ccccc3)C(=O)c3ccccc32)ccn1` reads 360 nM; that for `CC(C)(C)OC(=O)Cn1cnc2cc(NC(=O)c3cc([N+](=O)[O-])cc([N+](=O)[O-])c3)ccc21`, 310 nM; that for `COc1cc(CCCOc2c(N)nc(N)nc2N)cc(OC)c1OC`, 1220 nM. As for `COC(=O)c1cccc(CNCc2ccc(-c3ccc(-c4nc5ccccc5[nH]4)s3)cc2)c1`, the half-maximal inhibitory concentration (IC50) is 290 nM. Next, `Cn1nc(-c2ccc(CNC3CCc4ccccc43)cc2)c2cnc(NCCN3CCCC3)nc21` (configuration not stated): 1350 nM; `CC1(C)N=C(NC(=O)Nc2ccc([N+](=O)[O-])cc2)N=C(N)N1OCc1cccc2ccccc12`: 60 nM. On to `COc1ccc(C=C2SC(=O)NC2=Nc2ccccc2)c(OC)c1`, for which the IC50 is 470 nM.

The molecule `O=C(/C=C/c1ccc(Cl)c(Cl)c1)NCCCCCN1CCC(NC(=S)Nc2ccc(F)cc2F)CC1` registered an IC50 of 810 nM.

Molecule `C#CCN(Cc1ccc2nc(N)[nH]c(=O)c2c1)c1ccc(C(=O)N[C@@H](CCC(=O)O)C(=O)O)cc1` showed an IC50 of 220 nM. `CN1CCN(c2ccnc3ccc(NC(=O)Cc4cccc(Cl)c4Cl)cc23)CC1` yielded an IC50 of 790 nM. The result for `O=C(Nc1cc(C(F)(F)F)cc(C(F)(F)F)c1)Nc1cc(C(F)(F)F)cc(C(F)(F)F)c1` reads 730 nM. Next, `CCN1CCN(c2cc(C)c3cc(NC(=O)c4cccc(OC)c4)ccc3n2)CC1`: 800 nM. The result for `COc1cc(Cc2cnc(N)nc2N)cc(OCCCC(=O)O)c1OC` reads 1180 nM; that for `CC(C)C[C@@H](CNC[C@H](CC(C)C)NC(=O)OC(C)(C)C)NC(=O)OC(C)(C)C`, 1250 nM; that for `NCC1CCCN1Cc1cccc(-c2ccc(-c3nc4ccc(C(F)(F)F)cc4[nH]3)s2)c1` (configuration not stated), 750 nM. Take `CN1CCN(c2cc(NC(=O)c3ccc(-c4ccc(Cl)cc4)cc3)ccc2Cl)CC1`: the IC50 is 610 nM. Molecule `COc1ccc2nc3cc(Cl)ccc3c(NCCCO)c2c1` gave an IC50 of 780 nM. This IC50 and that of the molecule before are within 1.5-fold of each other. The molecule `NC(=O)C1CCN(Cc2cccc(-c3cccc(-c4nc5ccc(C(F)(F)F)cc5[nH]4)c3)c2)CC1` registered an IC50 of 640 nM. `Cc1cc(-c2cnc(N)c(-c3ccc(N4CCN(C)CC4)cc3)c2)cc(C)c1O`: the IC50 is 1170 nM. Compared with the last molecule, the IC50 is about 1.8-fold higher. Consider `O=C(/C=C/c1ccc(C(F)(F)F)cc1)NCCCCCN1CCCN(C(=O)Nc2ccc(Cl)c(C(F)(F)F)c2)CC1`, for which the IC50 was found to be 200 nM.

Consider `Cc1ccccc1CNc1ccc2nc(N)nc(N)c2c1`, for which the IC50 came to 170 nM.

Take `OCc1c(Cl)cc(Cl)cc1CNCCCNc1nc2ccccc2[nH]1`: the IC50 is 740 nM.

Take `N#Cc1ccc2[nH]cc(CN3CCC4(CC3)CN(CCNCc3ccccc3)C(=O)O4)c2c1`: the IC50 came out at 1160 nM. Next, `COc1ccc2nccc([C@@H](O)CN3CCC(NCc4ccc5nsnc5c4)CC3)c2c1`: 960 nM.
